Measurements reported in patent US9663516B2, “Bicyclic-pyrimidinedione compounds” (MyoKardia, Inc., priority 2014, dated 2017).

The molecules below were run against bovine cardiac myosin (Bos taurus, UniProt Q9BE39) (assay: Myosin inhibition assay (PK/LDH-coupled ATPase, bovine cardiac myofibrils)). Settings: calcium concentration giving 50% activation, pH 6.8, read-out: bcMF pCa_6 IC50.
Format: biochemical
Experimental: Small molecule agents were assessed for their ability to inhibit the enzymatic activity of bovine cardiac myosin using a biochemical assay that couples the release of ADP (adenosine diphosphate) from cardiac myosin to an enzymatic coupling system consisting of pyruvate kinase and lactate dehydrogenase (PK/LDH) and monitoring the absorbance decrease of NADH (at 340 nm) as a function of time. PK converts ADP to ATP (adenosine triphosphate) by converting PEP (phosphoenolpyruvate) to pyruvate. Pyruvate is then converted to lactate by LDH by converting NADH (nicotinamide adenine dinucleotide) to NAD (oxidized nicotinamide adenine dinucleotide). […] Prior to testing small molecule agents, the bovine myofibrils were assessed for their calcium responsiveness and the calcium concentration that achieves a 50% activation of the myofibril system was chosen as the final condition for assessing the inhibitory activity of the small molecule agents. All enzymatic activity was measured in a buffered solution containing 12 mM PIPES (piperazine-N,N′-bis(2-ethanesulfonic acid), 2 mM magnesium chloride at pH 6.8 (PM12 buffer). Final assay conditions were 1 mg/mL of bovine cardiac myofibrils, 0.4 mM PK/LDH, 50 uM ATP, 0.1 mg/mL BSA (bovine serum albumin), 10 ppm antifoam, 2 mM BME, 0.5 mM NADH, 1.5 mM PEP at the desired free calcium concentration required to achieve 50% activation of the myofibrils.
A dilution series of compound was created in DMSO such that the final desired concentration of compound would be achieved in a volume of 30 μL with a fixed DMSO concentration of 3.3% (v/v). Typically 1 μL of the dilution series were added to 384 well plate to achieve an 10 point dose response. Following the addition of 14 μL of a solution containing bovine cardiac myofibrils, PK/LDH and a solution of calcium (that achieved 50% activation), the enzymatic reaction was started with the addition of 15 μL of a solution containing ATP, PEP and NADH. The reaction progress was followed in a PerkinElmer Envision plate reader at ambient temperature using clear bottom plates. The plate reader was configured to read absorbance at 340 nm in kinetics mode for 15 minutes. Data were recorded as the slope of the absorbance response to time. The slopes of the absorbance response as a function of time were normalized to slopes on the plate containing DMSO. This normalized rate was then plotted as a function of small molecule concentration and the data was fitted to a four-parameter fit using EXCEL XLfit. The IC50 is the concentration at which fifty percent of the total response is inhibited.

Chain of bovine cardiac myosin (Q9BE39 whole entry): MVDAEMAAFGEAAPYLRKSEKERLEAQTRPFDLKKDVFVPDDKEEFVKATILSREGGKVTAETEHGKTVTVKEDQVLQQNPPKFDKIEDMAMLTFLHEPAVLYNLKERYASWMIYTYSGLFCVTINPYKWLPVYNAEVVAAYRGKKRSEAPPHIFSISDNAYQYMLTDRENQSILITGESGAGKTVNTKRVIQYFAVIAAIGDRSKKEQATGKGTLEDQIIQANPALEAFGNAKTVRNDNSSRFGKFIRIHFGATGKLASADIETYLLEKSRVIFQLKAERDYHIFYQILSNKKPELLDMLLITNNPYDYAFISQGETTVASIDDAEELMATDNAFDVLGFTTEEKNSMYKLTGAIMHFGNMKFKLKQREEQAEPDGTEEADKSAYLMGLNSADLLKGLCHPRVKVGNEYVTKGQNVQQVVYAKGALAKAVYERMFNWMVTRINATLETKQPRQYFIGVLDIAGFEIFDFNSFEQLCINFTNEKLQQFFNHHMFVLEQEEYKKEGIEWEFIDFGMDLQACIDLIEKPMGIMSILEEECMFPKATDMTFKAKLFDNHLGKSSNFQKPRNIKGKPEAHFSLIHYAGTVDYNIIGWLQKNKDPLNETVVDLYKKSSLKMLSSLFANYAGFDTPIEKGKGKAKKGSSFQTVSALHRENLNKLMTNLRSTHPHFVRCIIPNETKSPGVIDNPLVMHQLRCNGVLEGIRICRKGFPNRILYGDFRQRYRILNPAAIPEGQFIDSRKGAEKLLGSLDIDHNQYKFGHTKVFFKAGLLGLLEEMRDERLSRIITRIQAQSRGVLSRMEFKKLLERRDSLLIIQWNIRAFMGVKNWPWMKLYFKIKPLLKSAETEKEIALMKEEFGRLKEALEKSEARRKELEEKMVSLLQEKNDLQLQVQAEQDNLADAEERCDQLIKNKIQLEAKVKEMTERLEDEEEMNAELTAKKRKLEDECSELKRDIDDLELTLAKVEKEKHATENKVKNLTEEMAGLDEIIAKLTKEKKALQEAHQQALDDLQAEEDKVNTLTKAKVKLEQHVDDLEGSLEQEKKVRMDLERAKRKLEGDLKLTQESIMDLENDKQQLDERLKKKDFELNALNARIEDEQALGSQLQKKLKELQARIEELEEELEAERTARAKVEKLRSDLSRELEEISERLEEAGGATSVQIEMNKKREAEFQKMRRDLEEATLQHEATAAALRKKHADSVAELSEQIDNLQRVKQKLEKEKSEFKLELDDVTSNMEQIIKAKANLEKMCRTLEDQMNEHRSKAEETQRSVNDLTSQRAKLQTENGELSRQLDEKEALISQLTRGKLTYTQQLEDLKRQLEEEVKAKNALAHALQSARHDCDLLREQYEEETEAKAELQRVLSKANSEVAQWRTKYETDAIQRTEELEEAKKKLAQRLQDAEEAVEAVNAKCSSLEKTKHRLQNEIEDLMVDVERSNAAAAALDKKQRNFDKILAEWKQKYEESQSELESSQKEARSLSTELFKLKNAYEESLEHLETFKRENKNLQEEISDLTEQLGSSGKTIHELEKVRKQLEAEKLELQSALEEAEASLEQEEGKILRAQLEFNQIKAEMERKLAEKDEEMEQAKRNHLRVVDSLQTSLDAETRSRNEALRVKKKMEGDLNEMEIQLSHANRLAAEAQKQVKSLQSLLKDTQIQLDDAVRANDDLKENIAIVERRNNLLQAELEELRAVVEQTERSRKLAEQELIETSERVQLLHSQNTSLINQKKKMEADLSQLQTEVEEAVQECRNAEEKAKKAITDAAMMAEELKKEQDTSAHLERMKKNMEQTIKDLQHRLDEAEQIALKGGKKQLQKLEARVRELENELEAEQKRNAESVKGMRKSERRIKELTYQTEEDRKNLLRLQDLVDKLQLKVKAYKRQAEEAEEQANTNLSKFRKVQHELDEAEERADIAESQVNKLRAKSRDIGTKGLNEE
Chain of bovine cardiac myosin (P85100 whole entry partner): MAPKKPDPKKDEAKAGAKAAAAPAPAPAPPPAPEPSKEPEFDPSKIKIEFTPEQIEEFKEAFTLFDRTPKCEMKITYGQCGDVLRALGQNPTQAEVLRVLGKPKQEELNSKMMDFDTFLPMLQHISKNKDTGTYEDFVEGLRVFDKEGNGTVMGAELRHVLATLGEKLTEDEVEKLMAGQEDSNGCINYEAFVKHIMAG
Chain of bovine cardiac myosin (Q3SZE5 whole entry partner): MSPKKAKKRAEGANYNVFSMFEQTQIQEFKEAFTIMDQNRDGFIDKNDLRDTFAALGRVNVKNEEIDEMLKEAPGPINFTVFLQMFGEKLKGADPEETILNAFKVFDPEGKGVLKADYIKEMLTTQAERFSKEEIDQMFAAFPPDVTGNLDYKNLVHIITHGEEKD

CCn1c(=O)[nH]c2c(c1=O)CC[C@@](c1ccccc1)(C(C)C)N2 [Compound 131] and CCC[C@]1(c2ccccc2)CCc2c([nH]c(=O)n(CC)c2=O)N1 [Compound 133] fall in the same range of IC50: 1 to 15 µM for the first, 1 to 15 µM for the second.

O=c1[nH]c2c(c(=O)n1-c1ccccc1)CC[C@H](c1ccccc1)N2 [Compound 26] and O=c1[nH]c2c(c(=O)n1-c1ccccc1)CC[C@H](c1ccccc1F)N2 [Compound 108] fall in the same range of IC50: 1 to 15 µM for the first, 1 to 15 µM for the second.

CC(C)Cn1c(=O)[nH]c2c(c1=O)CC[C@H](c1ccc(F)c(F)c1)N2 [Compound 80] and CCn1c(=O)[nH]c2c(c1=O)CC[C@@H](c1ccc(F)c(F)c1)N2 [Compound 94] fall in the same range of IC50: 1 to 15 µM for the first, 1 to 15 µM for the second.

Compared with Cn1c(=O)[nH]c2c(c1=O)CC[C@](C)(c1cccc(F)c1)N2 [Compound 126, (R)-7-(3-Fluorophenyl)-3,7-dimethyl-5,6,7,8-tetrahydropyrido[2,3-d]pyrimidine-2,4(1H,3H)-dione], C[C@]1(c2cccc(F)c2)CCc2c([nH]c(=O)n(CC(F)F)c2=O)N1 [Compound 136] is lower in IC50: 1 to 15 µM for the first, less than 1 µM for the second.

CC(C)n1c(=O)[nH]c2c(c1=O)CC[C@H](C1CC(F)(F)C1)N2 [Compound 41] and CC(C)n1c(=O)[nH]c2c(c1=O)CC[C@H](CC1CC(F)(F)C1)N2 [Compound 50] fall in the same range of IC50: 1 to 15 µM for the first, 1 to 15 µM for the second.

First: CCn1c(=O)[nH]c2c(c1=O)CC[C@H](c1ccccc1)N2 [Compound 64]
Second: CCn1c(=O)[nH]c2c(c1=O)CC[C@H](c1ccc(Cl)cc1)N2 [Compound 15]
The IC50 of the first is higher: greater than 15 µM for the first, 1 to 15 µM for the second. The second is the more potent here.

Compared with CC(C)n1c(=O)[nH]c2c(c1=O)C[C@@H](c1ccccc1)N2 (single isomer, unassigned) [Compound 8], CC(C)n1c(=O)[nH]c2c(c1=O)C[C@H](c1ccccc1)N2 (single isomer, unassigned) [Compound 7] is lower in IC50: greater than 15 µM for the first, 1 to 15 µM for the second.

C[C@]1(c2ccccc2)CCc2c([nH]c(=O)n(-c3ccccc3)c2=O)N1 [Compound 139] and C[C@]1(c2cccc(F)c2)CCc2c([nH]c(=O)n(-c3ccccc3)c2=O)N1 [Compound 127] cannot be ordered by IC50: less than 1 µM for the first, less than 1 µM for the second.

COc1cccc([C@@H]2CCc3c([nH]c(=O)n(C(C)C)c3=O)N2)c1 [Compound 93] and Cc1cccc([C@@H]2CCc3c([nH]c(=O)n(C(C)C)c3=O)N2)c1 [Compound 103] cannot be ordered by IC50: greater than 15 µM for the first, greater than 15 µM for the second.

First: CCn1c(=O)[nH]c2c(c1=O)CC[C@](c1ccccc1)(C1CCC1)N2 [Compound 146]
Second: CCn1c(=O)[nH]c2c(c1=O)CC[C@](c1ccccc1)(C1CCOCC1)N2 [Compound 143]
The IC50 of the first is higher: greater than 15 µM for the first, 1 to 15 µM for the second.

Compared with O=c1[nH]c2c(c(=O)n1C1CCC1)CC[C@H](c1ccc(F)c(F)c1)N2 [Compound 96], CC(C)n1c(=O)[nH]c2c(c1=O)CC[C@@H](c1ccc(F)c(F)c1)N2 [Compound 85] is higher in IC50: 1 to 15 µM for the first, greater than 15 µM for the second. The first is the more potent here.

Cn1c(=O)[nH]c2c(c1=O)CC[C@](C)(c1cc(F)ccc1F)N2 [Compound 118] and CCn1c(=O)[nH]c2c(c1=O)CC[C@](C)(c1cc(F)ccc1F)N2 [Compound 119] fall in the same range of IC50: 1 to 15 µM for the first, 1 to 15 µM for the second.

Compared with O=c1[nH]c2c(c(=O)n1-c1cc(F)cc(F)c1)CC[C@H](c1ccccc1)N2 [Compound 65], O=c1[nH]c2c(c(=O)n1-c1cc(F)cc(F)c1)C[C@@H](c1ccccc1)N2 [Compound 79] is higher in IC50: 1 to 15 µM for the first, greater than 15 µM for the second. The first is the more potent here.

Compared with Cn1ccc(-n2c(=O)[nH]c3c(c2=O)CC[C@H](C2CCC(F)(F)CC2)N3)n1 [Compound 36], Cc1cccc(-n2c(=O)[nH]c3c(c2=O)CC[C@H](C2CCC(F)(F)CC2)N3)n1 [Compound 38] is higher in IC50: less than 1 µM for the first, 1 to 15 µM for the second. The first is the more potent here.

CC(C)n1c(=O)[nH]c2c(c1=O)CC[C@H](c1cc(F)ccc1F)N2 [Compound 17] and CC1(n2c(=O)[nH]c3c(c2=O)CC[C@H](c2cc(F)ccc2F)N3)CC1 [Compound 120] fall in the same range of IC50: 1 to 15 µM for the first, 1 to 15 µM for the second.

First: O=c1[nH]c2c(c(=O)n1-c1cc(F)cc(F)c1)CC[C@H](C1CC(F)(F)C1)N2 [Compound 42]
Second: O=c1[nH]c2c(c(=O)n1-c1cc(F)cc(F)c1)CC[C@H](CC1CC(F)(F)C1)N2 [Compound 51]
The IC50 of the first is higher: greater than 15 µM for the first, 1 to 15 µM for the second. The second is the more potent here.

CC(C)n1c(=O)[nH]c2c(c1=O)CC[C@@](C)(c1ccccc1)N2 [Compound 107] and CCn1c(=O)[nH]c2c(c1=O)CC[C@@](c1ccccc1)(C(C)C)N2 [Compound 132] cannot be ordered by IC50: greater than 15 µM for the first, greater than 15 µM for the second.

First: CCn1c(=O)[nH]c2c(c1=O)CC[C@H](c1cc(F)cc(F)c1)N2 [Compound 25]
Second: CCn1c(=O)[nH]c2c(c1=O)CC[C@H](c1ccc(F)c(Cl)c1)N2 [Compound 13]
The IC50 of the first is higher: greater than 15 µM for the first, 1 to 15 µM for the second.

O=c1[nH]c2c(c(=O)n1C1CC1)CC[C@H](c1ccccc1)N2 [Compound 90] and O=c1[nH]c2c(c(=O)n1C1CCC1)CC[C@H](c1ccccc1)N2 [Compound 28] fall in the same range of IC50: 1 to 15 µM for the first, 1 to 15 µM for the second.

COC(=O)N1CCC(n2c(=O)[nH]c3c(c2=O)CC[C@](C)(c2ccc(F)c(F)c2)N3)CC1 [Compound 125] and COC(=O)N1CCC([C@H]2CCc3c([nH]c(=O)n(C(C)C)c3=O)N2)CC1 [Compound 141] fall in the same range of IC50: 1 to 15 µM for the first, 1 to 15 µM for the second.

First: CC(C)n1c(=O)[nH]c2c(c1=O)CC[C@H](c1ccc(=O)[nH]c1)N2 [Compound 54]
Second: CC(C)n1c(=O)[nH]c2c(c1=O)CC[C@H](c1cccc(Cl)c1)N2 [Compound 12]
The IC50 of the first is higher: greater than 15 µM for the first, less than 1 µM for the second.

O=c1[nH]c2c(c(=O)n1-c1ccc(F)cn1)CC[C@H](C1CCC(F)(F)CC1)N2 [Compound 33] and O=c1[nH]c2c(c(=O)n1-c1ccccn1)CC[C@H](C1CCC(F)(F)CC1)N2 [Compound 45] cannot be ordered by IC50: less than 1 µM for the first, less than 1 µM for the second.

O=c1[nH]c2c(c(=O)n1-c1cc(F)cc(F)c1)CC[C@H](C1CCC(O)CC1)N2 (some centres unmarked) [Compound 52] and O=c1[nH]c2c(c(=O)n1-c1cc(F)cc(F)c1)CC[C@H](C1CCCC1)N2 [Compound 40] fall in the same range of IC50: 1 to 15 µM for the first, 1 to 15 µM for the second.

O=c1[nH]c2c(c(=O)n1-c1ccccn1)CC[C@H](c1ccccc1)N2 [Compound 35] and CC1(n2c(=O)[nH]c3c(c2=O)CC[C@H](c2ccccc2)N3)CC1 [Compound 56] fall in the same range of IC50: 1 to 15 µM for the first, 1 to 15 µM for the second.

Cc1cccc([C@H]2CCc3c([nH]c(=O)n(C4(C)CC4)c3=O)N2)c1 [Compound 124] and C/C=C(\C)n1c(=O)[nH]c2c(c1=O)CC[C@H](c1ccccc1)N2 [Compound 55] fall in the same range of IC50: 1 to 15 µM for the first, 1 to 15 µM for the second.

First: O=c1[nH]c2c(c(=O)n1CC(F)F)CC[C@H](c1ccc(F)cc1)N2 [Compound 73]
Second: CCn1c(=O)[nH]c2c(c1=O)CCC[C@@H](c1ccc(F)c(F)c1)N2 [Compound 100]
The IC50 of the first is lower: 1 to 15 µM for the first, greater than 15 µM for the second. The first is the more potent here.

CC(C)n1c(=O)[nH]c2c(c1=O)C[C@@H](C)[C@H](c1ccccc1)N2 [Compound 91] and CC(C)n1c(=O)[nH]c2c(c1=O)C[C@@H](Cc1ccccc1)N2 [Compound 88] cannot be ordered by IC50: greater than 15 µM for the first, greater than 15 µM for the second.

First: CC(C)n1c(=O)[nH]c2c(c1=O)CC(F)(F)[C@@H](c1ccccc1)N2 [Compound 117, (R)-6,6-Difluoro-3-isopropyl-7-phenyl-5,6,7,8-tetrahydropyrido[2,3-d]pyrimidine-2,4(1H,3H)-dione]
Second: CC(C)n1c(=O)[nH]c2c(c1=O)CC[C@H](Cc1ccccc1)N2 [Compound 66]
The IC50 of the first is higher: greater than 15 µM for the first, less than 1 µM for the second.

O=c1[nH]c2c(c(=O)n1C1CCOCC1)CC[C@H](c1ccccc1)N2 [Compound 32] and O=c1[nH]c2c(c(=O)n1-c1cc(F)cc(F)c1)CC[C@H](c1cccc(F)c1)N2 [Compound 60] fall in the same range of IC50: 1 to 15 µM for the first, 1 to 15 µM for the second.

COc1ccc([C@H]2CCc3c([nH]c(=O)n(C(C)C)c3=O)N2)cn1 [Compound 59] and [2H]C1([2H])C[C@H](c2ccc(F)c(F)c2)Nc2[nH]c(=O)n(C(C)C)c(=O)c21 [Compound 101, (7R)-7-(3,4-Difluorophenyl)-3-isopropyl-5,6,7,8-tetrahydropyrido[2,3-d]pyrimidine-2,4(1H,3H)-dione-5,5-d2] fall in the same range of IC50: 1 to 15 µM for the first, 1 to 15 µM for the second.

Going from O=c1[nH]c2c(c(=O)n1-c1ccccc1)C(O)C[C@H](c1ccc(F)cc1)N2 (stereo partly drawn) [Compound 95, (7R)-7-(4-Fluorophenyl)-5-hydroxy-3-phenyl-5,6,7,8-tetrahydropyrido[2,3-d]pyrimidine-2,4(1H,3H)-dione] to C[C@]1(c2cc(F)ccc2F)CCc2c([nH]c(=O)n(-c3cc(F)cc(F)c3)c2=O)N1 [Compound 135], the IC50 falls from greater than 15 µM to less than 1 µM.

First: CCn1c(=O)[nH]c2c(c1=O)CC[C@@H](c1ccc(F)c(F)c1)CN2 [Compound 98]
Second: CCCn1c(=O)[nH]c2c(c1=O)CC[C@H](C1CCC(F)(F)CC1)N2 [Compound 30]
The IC50 of the first is higher: greater than 15 µM for the first, less than 1 µM for the second.

CC[C@H](C)n1c(=O)[nH]c2c(c1=O)CC[C@H](C1CCC(F)(F)CC1)N2 [Compound 29] showed an IC50 of 1 to 15 µM.
